# Results published in patent publication US11701389B2, “Methods of preserving mesenchymal stem cells” (Emory University, priority 2016, dated 2023).
# Where a SMILES comes first, the peptide text is derived from it. The star is where a group is joined. Cbz = O=C(OCc1ccccc1)*; CH2F = FC*
# Tested on: T cell proliferation in SEB activated PBMCs
# Test: MSC and PBMC coculture, Ki67 T cell proliferation assay
# Format: cell-based, human
# Conditions: for inhibition of T cell proliferation by frozen-thawed MSCs pretreated with inhibitor prior to cryopreservation: Z-VAD-FMK 50 uM or 3-Methyl Adenine 1 mM pretreatment, FIG. 5A, 5B
SMILES,inhibition of T cell proliferation by frozen-thawed MSCs pretreated with inhibitor prior to cryopreservation,"effect of IDO blocking on suppression of T-cell proliferation by IFNgamma Cryo MSCs (1 mM added to coculture, FIG. 5F)"
COC(=O)C[C@H](NC(=O)[C@H](C)NC(=O)[C@@H](NC(=O)OCc1ccccc1)C(C)C)C(=O)CF [Z-VAD-FMK] (Cbz-Val-Ala-Asp(OMe)-CH2F),defective in inhibiting T cell proliferation,
Cn1cc(C[C@H](N)C(=O)O)c2ccccc21 (racemic) [1-Methyl Tryptophan],,negates the suppressive effect
Cn1cnc(N)c2ncnc1-2 [3-Methyl Adenine],defective in inhibiting T cell proliferation,
